Assay results from publication PMC8958501, “Hypothesis-Driven, Structure-Based Design in Photopharmacology: The Case of eDHFR Inhibitors” (Journal of Medicinal Chemistry, 2022).
Like-named read-outs stand apart in the source and are kept apart here.

Legend:
eDHFR = target: T1, eDHFR (Escherichia coli, UniProt P0ABQ4); experiment: biochemical; conditions: for light-induced change in eDHFR inhibition (dark IC50 vs irradiated IC50): irradiation with λ1 = 365 nm;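 for all read-outs here: purified E. coli DHFR colorimetric assay, enzyme with NADPH 3 min then inhibitor (10^-12 to 10^-5 M) 7 min, rate ΔAbs/s relative to DMSO control (1% v/v), triplicates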
T1 construct: made in house; host or cells: E. cloni EXPRESS BL21 (DE3) cells (Lucigen), pT7-SC1 plasmid
T1 sequence (P0ABQ4 whole entry): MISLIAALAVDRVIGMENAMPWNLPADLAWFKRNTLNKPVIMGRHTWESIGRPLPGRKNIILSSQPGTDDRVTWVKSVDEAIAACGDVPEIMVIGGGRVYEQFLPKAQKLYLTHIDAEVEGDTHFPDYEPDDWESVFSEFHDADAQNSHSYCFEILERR
Experimental: A 10 mM stock solution of the inhibitor in DMSO was divided into two parts. One half was thermally adapted with a heat gun for 1 min to obtain only the trans isomer.
The compounds were tested as eDHFR inhibitors via a colorimetric assay (Sigma-Aldrich, Catalog No. CS0340). Instead of the human DHFR protein provided in the kit, the in-house purified eDHFR was used. In a 3 mL cuvette, eDHFR (∼20 ng) was incubated with NADPH (60 μM, final) for 3 min, followed by an incubation with the inhibitor (from 10^–5 to 10^–12 M, final) for an additional 7 min. […] The concentration of DMSO in the final volume was 1% v/v for all enzymatic reactions. The measurements were performed in triplicates. For the control enzymatic reactions, eDHFR was incubated with NADPH and DMSO (1% v/v, final). […] The related control enzymatic reaction was also performed under continuous irradiation with λ1 = 390 nm light. Linear regression was performed in Microsoft Excel to calculate ΔAbs/s. % eDHFR activity was calculated as the ratio between ΔAbs/s for the sample and ΔAbs/s for the control reaction. GraphPadPrism 5.0 (GraphPad Software, Inc., version 5.00) was used for the determination of the IC50 of each inhibitor. Nonlinear regression was used for data fitting.

E. coli CS1562 = experiment: Antibacterial activity assay (MIC, bacterial growth curves); assay type: cell-based, Escherichia coli; conditions: for MIC: Escherichia coli
Experimental: A culture of E. coli CS1562 was grown overnight in LB medium (10 g/L tryptone, 5 g/L yeast extract, 5 g/L NaCl) containing tetracycline (10 μg/mL) at 37 °C. The OD600 was measured, and the culture was diluted to 0.002 OD600 in LB medium. Series dilutions of the compounds were prepared in DMSO and diluted 25 times in sterile LB medium in a black sterile Eppendorf tube. […] Subsequently, the dark samples were added to the 96-well plate (100 μL, triplicates). Lastly, the LB medium containing E. coli CS1562 at 0.002 OD was added to every well (100 μL). The cells were grown overnight at 37 °C in a plate reader (Synergy H1, Biotek), and the OD600 was measured every 10 min with a 10 s shaking step before each measurement. The OD600 curves were background-corrected by subtracting the value at t = 0. […] Detailed data are reported in the SI.

[1] = Thermal cis-to-trans isomerization (thermal half-life of the metastable cis isomer); assay type: physicochemical; conditions: thermal cis-to-trans isomerization, DMSO, 25 °C, 20 µM
Experimental: UV–vis absorption spectra were recorded on an Agilent 8453 UV–vis Spectrophotometer. Photochemical isomerization (photoswitching) was achieved by irradiation from the side in a fluorescence quartz cuvette (width = 1.0 cm) using a custom-built (Prizmatix/Mountain Photonics) multiwavelength fiber coupled LED system (FC6-LED-WL) including the following LEDs: 365A, 390B, 420Z, 445B, 535R, 630CA. A detailed description of the setup was published by us recently.[84] Alternatively, the samples were irradiated at 340 nm using the LOT Quantum design setup with 300 W Xe-Arc lamp, using the Thorlabs FB340-10 Bandpass filter. A Quantum Northwest TC1 temperature controller was used to maintain the temperature at 25 °C during photochemical studies. To analyze the fatigue resistance of the compounds, repeated irradiation cycles were performed using alternating wavelengths. The decrease and increase of the π–π* transition band was followed by UV–vis spectroscopy (Agilent 8453) at 25 °C while stirring. To determine the thermal lifetime for the metastable cis isomer, samples were irradiated with the custom-built setup until photostationary state (PSS) was reached. Then, the cuvettes were placed in a JASCO V750 spectrophotometer with a PTC 424S/15 temperature controller, and the recovery of the π–π* transition was followed while stirring at 25 °C (for solutions in DMSO and eDHFR assay buffer) or 37 °C (for solutions in 10 mM Tris-HCl buffer pH 7.0). The data were fitted using a first-order exponential function in OriginPro 2018. For the PSD determination by ^1H NMR spectroscopy, 0.5 mL of a 2 mM solution of the respective compound in DMSO-d6 was thermally equilibrated by briefly (∼10 s) heating the sample with a heat gun. Subsequently, the sample was irradiated in a glass NMR tube with a 365 nm hand-held lamp (Spectroline ENB-280C) or the LEDs of the custom-built setup. Detailed data are reported in the SI.

[2] = DHFR inhibition IC50 (nM) before irradiation, before irradiation
[3] = IC50 Dark, dark-adapted (thermally adapted, trans isomer)
[4] = after irradiation, read-out: DHFR inhibition IC50 (nM) after irradiation
[5] = irradiated to PSS with λ1 (340 nm for 3, 365 nm for 6-15), read-out: IC50 Light
[6] = light or radiation study, after irradiation with λ1 = 365 nm, E. coli CS1562, 24 h, read-out: MIC Light
[7] = light or radiation study, after irradiation, E. coli CS1562, 24 h, read-out: MIC (µM) after irradiation
[8] = light or radiation study, before irradiation, E. coli CS1562, 24 h, read-out: MIC (µM) before irradiation
[9] = dark, E. coli CS1562, 24 h, read-out: MIC Dark
[10] = before irradiation, read-out: DHFR inhibition IC50 (nM) before irradiation

In the case of `COC(C)(C#Cc1cnc(N)nc1N)c1ccc(/N=N/c2ccc(C(=O)O)cc2)cc1` (centres unmarked) [Compound 11, (E)-4-{[4-(4-(2,4-Diaminopyrimidin-5-yl)-2-methoxybut-3-yn-2-yl)phenyl]diazenyl}benzoic acid], the IC50 (eDHFR; [2]) is reported as 58 ± 13 nM, the IC50 (eDHFR; [3]) is reported as 58 ± 13 nM and the IC50 (eDHFR; [4]) is reported as 70 ± 39 nM. The IC50 (eDHFR; [5]) was 70 ± 39 nM, the “light-induced change in eDHFR inhibition (dark IC50 vs irradiated IC50)” value (shortened to “light-induced change in eDHFR inhibition”) (eDHFR) was “not significant” and the MIC (E. coli CS1562; [6]) was 40 µM. It also gave an MIC (E. coli CS1562; [7]) of 40 µM, an MIC (E. coli CS1562; [8]) of 40 µM and an MIC (E. coli CS1562; [9]) of 40 µM. For the same compound, the “MIC / bacterial growth inhibition, same in both forms” value (E. coli CS1562; both before and after irradiation with λ1 = 365 nm, E. coli CS1562) was 40 µM, the “t1/2 DMSO (25 °C)” value [1] was over 24 h and the melting point was 248 °C (dec.).
For `COC(C)(C#Cc1cnc(N)nc1N)c1ccc(/N=N/c2ccc(C)c(C(=O)O)c2)cc1` (centres unmarked) [Compound 12, (E)-5-{[4-(4-(2,4-Diaminopyrimidin-5-yl)-2-methoxybut-3-yn-2-yl)phenyl]diazenyl}-2-methylbenzoic acid], the IC50 (eDHFR; [4]) was 71 ± 18 nM, the IC50 (eDHFR; [10]) was 13 ± 2.8 nM and the “light-induced change in eDHFR inhibition” value (eDHFR) was 5 fold. For the same compound, the MIC (E. coli CS1562; [6]) was 20 µM, the MIC (E. coli CS1562; [7]) was 20 µM and the MIC (E. coli CS1562; [8]) was 20 µM. The MIC (E. coli CS1562; [9]) was 20 µM, the “t1/2 DMSO (25 °C)” value [1] was over 24 h and the melting point was 221 °C (dec.).
For `COC(C)(C#Cc1cnc(N)nc1N)c1ccc(/N=N/c2ccc(Cl)c(C(=O)O)c2)cc1` (centres unmarked) [Compound 13, (E)-2-Chloro-5-{[4-(4-(2,4-diaminopyrimidin-5-yl)-2-methoxybut-3-yn-2-yl)phenyl]diazenyl}benzoic acid], the IC50 (eDHFR; [4]) was 29 ± 8.6 nM, the IC50 (eDHFR; [10]) was 28 ± 4.8 nM and the “light-induced change in eDHFR inhibition” value (eDHFR) was “no difference in activity”. The MIC (E. coli CS1562; [6]) was 80 µM, the MIC (E. coli CS1562; [7]) was 80 µM and the MIC (E. coli CS1562; [8]) was 40 µM. For the same compound, the MIC (E. coli CS1562; [9]) was 40 µM, the “t1/2 DMSO (25 °C)” value [1] was over 24 h and the melting point was 212 °C (dec.).
In the case of `COC(C)(C#Cc1cnc(N)nc1N)c1ccc(/N=N/c2ccc(C(=O)O)c(C)c2)cc1` (centres unmarked) [Compound 14, (E)-4-{[4-(4-(2,4-Diaminopyrimidin-5-yl)-2-methoxybut-3-yn-2-yl)phenyl]diazenyl}-2-methylbenzoic acid], the IC50 (eDHFR; [4]) is reported as 37 ± 14 nM, the IC50 (eDHFR; [10]) is reported as 77 ± 26 nM and the “light-induced change in eDHFR inhibition” value (eDHFR) is reported as 2 fold. For the same compound, the MIC (E. coli CS1562; [6]) was 40 µM, the MIC (E. coli CS1562; [7]) was 40 µM and the MIC (E. coli CS1562; [8]) was 20 µM. For the same compound, the MIC (E. coli CS1562; [9]) was 20 µM, the “t1/2 DMSO (25 °C)” value [1] was over 24 h and the melting point was 240 °C (dec.).
With `COC(C)(C#Cc1cnc(N)nc1N)c1ccc(/N=N/c2ccc(C(=O)O)c(Cl)c2)cc1` (centres unmarked) [Compound 15, (E)-2-Chloro-4-{[4-(4-(2,4-diaminopyrimidin-5-yl)-2-methoxybut-3-yn-2-yl)phenyl]diazenyl}benzoic acid] the IC50 (eDHFR; [2]) was 52 ± 11 nM, the IC50 (eDHFR; [3]) was 52 ± 11 nM and the IC50 (eDHFR; [4]) was 27 ± 3.7 nM. For the same compound, the IC50 (eDHFR; [5]) was 27 ± 3.7 nM, the “light-induced change in eDHFR inhibition” value (eDHFR) was 2 fold and the MIC (E. coli CS1562; [6]) was 20 µM. For the same compound, the MIC (E. coli CS1562; [7]) was 20 µM, the MIC (E. coli CS1562; [8]) was 40 µM and the MIC (E. coli CS1562; [9]) was 40 µM. For the same compound, the “light-induced difference in antibacterial activity (dark MIC vs irradiated MIC)” value (E. coli CS1562; irradiation with λ1 = 365 nm, E. coli CS1562) was 2 fold, the “t1/2 DMSO (25 °C)” value [1] was over 24 h and the melting point was 245 °C (dec.).
`COc1ccc(/N=N/c2ccc(COc3c(OC)cc(Cc4cnc(N)nc4N)cc3OC)cc2)cc1` [PMAT, para-methoxyazobenzene trimethoprim, reference compound] showed an IC50 (eDHFR; [3]) of 2 ± 0.61 nM and an IC50 (eDHFR; [5]) of 2.5 ± 0.61 nM.
Work on `COc1cc(Cc2cnc(N)nc2N)cc(OC)c1OCc1cc(Cl)c(/N=N/c2c(Cl)cccc2Cl)c(Cl)c1` [TCAT, tetra-ortho-chloroazobenzene trimethoprim, reference compound] yielded an IC50 (eDHFR; [4]) of 3.3 ± 2.1 nM and an IC50 (eDHFR; [10]) of 3.8 ± 1.4 nM.
With `COc1cc(Cc2cnc(N)nc2N)cc(OC)c1OCc1cc(F)c(/N=N/c2c(F)cccc2F)c(F)c1` [TFAT, tetra-ortho-fluoroazobenzene trimethoprim, reference compound] the IC50 (eDHFR; [4]) was 1.7 ± 0.32 nM and the IC50 (eDHFR; [10]) was 1.9 ± 0.61 nM.
In the case of `COc1cc(Cc2cnc(N)nc2N)cc(OC)c1OC` [TMP, trimethoprim, reference compound], the MIC (E. coli CS1562; CS1562, light or radiation study, 24 h) is reported as 1.3 µM and the MIC (E. coli CS1562; CS1562, light or radiation study, 24 h, read-out: MIC (µM) before irradiation) is reported as 1.3 µM.
